From patent publication US5597715A, “7,42-Bis(O-demethyl)rapamycin” (SmithKline Beecham p.l.c., priority 1993, dated 1997)

Tested on: Spleen cells
Experiment: Mitogenesis Assay for Immunosuppressive Activity (Concanavalin A, 3H-thymidine)
Format: cell-based, BDF1 female mice
Conditions: Mus musculus; Concanavalin A 5 μg/ml, 72 hours, 3H-thymidine last 18 hours
Method: Spleen cells for BDF1 female mice were established in RPMI with 10% fetal calf serum at 5×10^6 /mL. One hundred […] of this suspension (5×10^5 cells) were dispensed into 96-well round-bottomed microtiter plates (Linbro, Flow Laboratories). Concanavalin A (5 μg/ml) was added as the mitogenic stimulus, and the final volume in the microtiter wells was adjusted to 200 μL with RPMI. Cell cultures were incubated for 72 hours at 37° C. in a 5% CO2 atmosphere and pulsed with 0,5 μCi ^3 H-thymidine (specific activity […]) for the last 18 hours of the 72 hours culture. The cells were harvested on an automated multiple sample harvester and cell-associated radioactivity counted in a Beckman liquid scintillation counter. The results were expressed as the mean values derived from quadruplicate measurements. Cell viability was determined by trypan blue exclusion after 72 hours of incubation. Compounds to be tested were added to the microtiter plates at the appropriate dilutions prior to the addition of cells.

Q: For COC1C(=O)C(C)CC(C)C=CC=CC=C(C)C(O)CC2CCC(C)C(O)(O2)C(=O)C(=O)N2CCCCC2C(=O)OC(C(C)CC2CCC(O)C(O)C2)CC(=O)C(C)C=C(C)C1O (stereo not shown) [7,42-Bis(O-demethyl)rapamycin], which IC50 is on record?
A: 10 to 130 nM
